Assay results from patent US20240287071A1, “CLASS OF IMIDAZOLIDINOPYRIMIDONE COMPOUNDS AND USE THEREOF IN TREATMENT OF HSCLPP-MEDIATED DISEASES” (SICHUAN UNIVERSITY, priority 2021, published 2024).

Target: HsClpP (Homo sapiens, UniProt Q16740)
Assay: HsClpP enzyme hydrolysis of short peptide substrate AC-WLA-AMC
Settings: promoting hydrolysis of short peptide substrate by HsClpP, relative to blank control
Procedure: This study evaluated the regulatory activity of the compounds on HsClpP by examining the hydrolysis effects of HsClpP protein on the AC-WLA-AMC substrate . […] The small molecules and the HsClpP protein solution were added to a flat-bottomed black 96-well plate, with three replicate wells for each group. […] DMSO was used as a negative control instead of small molecules. The multiple of readings at different concentrations against the readings of DMSO group was recorded as an index for evaluation of hydrolysis activity. . . . GraphPad Prism was used to plot the obtained multiple values and calculate the EC50 values.

Sequence of HsClpP (Q16740 57-277): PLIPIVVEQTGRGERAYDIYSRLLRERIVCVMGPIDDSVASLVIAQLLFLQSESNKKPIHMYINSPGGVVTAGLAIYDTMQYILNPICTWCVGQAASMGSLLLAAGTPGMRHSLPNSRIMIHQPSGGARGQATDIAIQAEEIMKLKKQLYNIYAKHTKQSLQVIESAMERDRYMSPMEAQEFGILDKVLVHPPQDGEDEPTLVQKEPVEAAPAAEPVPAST

SMILES | Regulatory efficacy 1 μM | Regulatory efficacy 10 μM
N#Cc1cccc(CN2Cc3c(n4c(nc3=O)N(Cc3ccccc3)CC4)C(F)(F)C2)c1 [Compound 52, 3-((3-benzyl-9,9-difluoro-5-oxo-2,3,6,7,8,9-hexahydroimidazo[1,2-a]pyrido[3,4-e]pyrimidin-7(6H)-yl)methyl)benzonitrile] | + + | + +
Cc1ccccc1CN1CCn2c1nc(=O)c1c2CCN(Cc2cccnc2)C1 [Compound 43, 3-(2-methylbenzyl)-7-(pyridin-3-methyl)-2,3,6,7,8,9-hexahydroimidazo[1,2-a]pyrido[3,4-e]pyrimidi n-5(1H)-one] | + (+ indicating that the increased efficacy is less than 50% of the blank control group) | + +
Cc1ccccc1CN1CCn2c1nc(=O)c1c2CCN(Cc2ccncc2)C1 [Compound 44, 3-(2-methylbenzyl)-7-(pyridin-4-methyl)-2,3,6,7,8,9-hexahydroimidazo[1,2-a]pyrido[3,4-e]pyrimidi n-5(1H)-one] | + (+ indicating that the increased efficacy is less than 50% of the blank control group) | + +
Cc1ccc(CN2CCc3c(c(=O)nc4n3CCN4Cc3ccccc3C)C2)cc1 [Compound 33, 3-(2-methylbenzyl)-7-(4-methylbenzyl)-2,3,6,7,8,9-hexahydroimidazo[1,2-a]pyrido[3,4-e]pyrimidin-5(1H)-one] | + + | + +
Cc1ccccc1CN1CCn2c1nc(=O)c1c2CCN(Cc2ccccc2C#N)C1 [Compound 34, 2-((3-(2-methylbenzyl)-5-oxo-2,3,6,7,8,9-hexahydroimidazo[1,2-a]pyrido[3,4-e]pyrimidin-7(6H)-yl)methyl)benzonitrile] | + + | + +
COC(=O)c1cccc(CN2CCn3c2nc(=O)c2c3C(F)(F)CN(Cc3cccc(C#N)c3)C2)c1 [Compound 51] | + + | + +
O=c1nc2n(c3c1CN(Cc1ccccc1)CC3)CCN2Cc1cccc(F)c1 [Compound 63, 7-Benzyl-3-(3-fluorobenzyl)-2,3,6,7,8,9-hexahydroimidazo[1,2-a]pyrido[3,4-e]pyrimidin-5(1H)-one] | + (+ indicating that the increased efficacy is less than 50% of the blank control group) | + +
Cc1ccccc1CN1CCn2c1nc(=O)c1c2CCN(CC(C)C)C1 [Compound 29, 7-isobutyl-3-(2-methylbenzyl)-2,3,6,7,8,9-hexahydroimidazo[1,2-a]pyrido[3,4-e]pyrimidin-5(1H)-one] | + (+ indicating that the increased efficacy is less than 50% of the blank control group) | + (+ indicating that the increased efficacy is less than 50% of the blank control group)
Cc1ccccc1CN1CCn2c1nc(=O)c1c2CCN(C(=O)OC(C)(C)C)C1 [Compound 27, 7-tert-butoxycarbonyl-3-(2-methylbenzyl)-2,3,6,7,8,9-hexahydroimidazo[1,2-a]pyrido[3,4-e]pyrimid in-5(1H)-one] | + + | + +
Cc1ccccc1CN1CCn2c1nc(=O)c1c2CCN(Cc2ccc(F)cc2F)C1 [Compound 37, 7-(2,4-difluorobenzyl)-3-(2-methylbenzyl)-2,3,6,7,8,9-hexahydroimidazo[1,2-a]pyrido[3,4-e]pyrimidin-5(1H)-one] | + (+ indicating that the increased efficacy is less than 50% of the blank control group) | + +
N#Cc1cccc(CN2Cc3c(n4c(nc3=O)N(Cc3cccc(F)c3)CC4)C(F)(F)C2)c1 [Compound 53, 3-((3-(3-fluorobenzyl)-9,9-difluoro-5-oxo-2,3,6,7,8,9-hexahydroimidazo[1,2-a]pyrido[3,4-e]pyrimidin-7(6H)-yl)methyl)benzonitrile] | + + | + +
Cc1ccccc1CN1CCn2c1nc(=O)c1c2CCN(CCCCc2ccccc2)C1 [Compound 41, 3-(2-methylbenzyl)-7-(4-phenylbutyl)-2,3,6,7,8,9-hexahydroimidazo[1,2-a]pyrido[3,4-e]pyrimidin-5 (1H)-one] | + (+ indicating that the increased efficacy is less than 50% of the blank control group) | + (+ indicating that the increased efficacy is less than 50% of the blank control group)
Cc1ccccc1CN1CCCn2c1nc(=O)c1c2CCN(Cc2ccccc2)C1 [Compound 46, 3-Benzyl-7-(2-methylbenzyl)-1,2,3,4,7,8,9, 10-octahydro-5H-pyrido[3,4-e]pyrimido[1,2-a] pyrimidin-5-one] | + (+ indicating that the increased efficacy is less than 50% of the blank control group) | + +
Cc1ccccc1CN1CCn2c1nc(=O)c1c2CCN(c2nncs2)C1 [Compound 45, 3-(2-methylbenzyl)-7-(1,3,4-thiadiazol-2-yl)-2,3,6,7,8,9-hexahydroimidazo[1,2-a]pyrido[3,4-e]pyri midin-5(1H)-one] | + (+ indicating that the increased efficacy is less than 50% of the blank control group) | + (+ indicating that the increased efficacy is less than 50% of the blank control group)

Second part, the compound after the results:

Regulatory efficacy 1 μM | Regulatory efficacy 10 μM | SMILES
+ + | + + | O=c1nc2n(c3c1CN(Cc1ccccc1)CC3)CCN2Cc1cccc(Br)c1 [Compound 59, 7-Benzyl-3-(3-bromobenzyl)-2,3,6,7,8,9-hexahydroimidazo[1,2-a]pyrido[3,4-e]pyrimidin-5(1H)-one]
+ + | + + | O=c1nc2n(c3c1CN(Cc1ccccc1)CC3)CCN2Cc1ccccc1Cl [Compound 61, 7-Benzyl-3-(2-chlorobenzyl)-2,3,6,7,8,9-hexahydroimidazo[1,2-a]pyrido[3,4-e]pyrimidin-5(1H)-one]
+ + | + + | CC(C)CCN1CCn2c1nc(=O)c1c2C(F)(F)CN(Cc2cccc(C#N)c2)C1 [Compound 55, 3-((9,9-difluoro-3-isopentyl-5-oxo-2,3,6,7,8,9-hexahydroimidazo[1,2-a]pyrido[3,4-e]pyrimidin-7(6H)-yl)methyl)benzonitrile]
+ + | + + | N#Cc1cccc(CN2Cc3c(n4c(nc3=O)N(Cc3ccc(F)c(Br)c3)CC4)C(F)(F)C2)c1 [Compound 54, 3-((3-(3-bromo-4-fluorobenzyl)-9,9-difluoro-5-oxo-2,3,6,7,8,9-hexahydroimidazo[1,2-a]pyrido[3,4-e]pyrimidin-7(6H)-yl)methyl)benzonitrile]
+ + | + + | CS(=O)(=O)c1ccc(CN2CCn3c2nc(=O)c2c3C(F)(F)CN(Cc3ccccc3)C2)cc1 [Compound 75, 7-Benzyl-9,9-difluoro-3-(4-(methylsulfonyl)benzyl)-2,3,6,7,8,9-hexahydroimidazo[1,2-a]pyrido[3,4-e]pyrimidin-5(1H)-one]
+ + | + + | COc1ccccc1CN1CCn2c1nc(=O)c1c2C(F)(F)CN(Cc2ccccc2)C1 [Compound 74, 7-Benzyl-9,9-difluoro-3-(2-methoxybenzyl)-2,3,6,7,8,9-hexahydroimidazo[1,2-a]pyrido[3,4-e]pyrimidin-5(1H)-one]
+ + | + + | O=c1nc2n(c3c1CN(Cc1ccccc1)CC3(F)F)CCN2Cc1ccc(Cl)c(Cl)c1 [Compound 79, 7-Benzyl-3-(3,4-dichlorobenzyl)-9,9-difluoro-2,3,6,7,8,9-hexahydroimidazo[1,2-a]pyrido[3,4-e]pyrimidin-5(1H)-one]
+ + | + + | O=c1nc2n(c3c1CN(Cc1ccccc1)CC3(F)F)CCN2Cc1ccc(F)cc1F [Compound 81, 7-Benzyl-3-(2,4-difluorobenzyl)-9,9-difluoro-2,3,6,7,8,9-hexahydroimidazo[1,2-a]pyrido[3,4-e]pyrimidin-5(1H)-one]
+ + | + + | N#Cc1cccc(CN2Cc3c(n4c(nc3=O)N(Cc3ccc(Cl)c(Cl)c3)CC4)C(F)(F)C2)c1 [Compound 57, 3-((9,9-difluoro-3-(3,4-dichlorobenzyl)-5-oxo-2,3,6,7,8,9-hexahydroimidazo[1,2-a]pyrido[3,4-e]pyrimidin-7(6H)-yl)methyl)benzonitrile]
+ + | + + | Cc1ccc(CN2CCn3c2nc(=O)c2c3C(F)(F)CN(Cc3ccccc3)C2)cc1 [Compound 72, 7-Benzyl-9,9-difluoro-3-(4-methylbenzyl)-2,3,6,7,8,9-hexahydroimidazo[1,2-a]pyrido[3,4-e]pyrimid in-5(1H)-one]
+ + | + + | O=c1nc2n(c3c1CN(Cc1ccccc1)CC3(F)F)CCN2Cc1ccc(C(F)(F)F)cc1 [Compound 73, 7-Benzyl-9,9-difluoro-3-(4-(trifluoromethyl)benzyl)-2,3,6,7,8,9-hexahydroimidazo[1,2-a]pyrido[3,4-e]pyrimidin-5(1H)-one]
+ + | + + | Cc1cccc(CN2CCn3c2nc(=O)c2c3C(F)(F)CN(Cc3cccc(C#N)c3)C2)c1 [Compound 58, 3-((9,9-difluoro-3-(3-methylbenzyl)-5-oxo-2,3,6,7,8,9-hexahydroimidazo[1,2-a]pyrido[3,4-e]pyrimidin-7(6H)-yl)methyl)benzonitrile]
+ + | + + | O=c1nc2n(c3c1CN(Cc1ccccc1)CC3(F)F)CCN2Cc1ccc(Cl)cc1 [Compound 77, 7-Benzyl-3-(4-chlorobenzyl)-9,9-difluoro-2,3,6,7,8,9-hexahydroimidazo[1,2-a]pyrido[3,4-e]pyrimidi n-5(1H)-one]
+ + | + + | O=c1nc2n(c3c1CN(Cc1ccccc1)CC3(F)F)CCN2Cc1ccc(Br)cc1 [Compound 78, 7-Benzyl-3-(4-bromobenzyl)-9,9-difluoro-2,3,6,7,8,9-hexahydroimidazo[1,2-a]pyrido[3,4-e]pyrimidin-5(1H)-one]
